Laboratory results from patent publication US6511993B1, “Metalloprotease inhibitors” (priority 1999, dated 2003).
pIC50: −log10 of the molar value. Structures can show the parent of a compound that is named as a salt.

Key:
MMP-3 = target: T1, MMP-3 (Homo sapiens, UniProt P08254); experiment: Inhibition of MMP-3, fluorogenic peptide cleavage; type: biochemical; conditions: catalytic domain MMP-3, 1 nM enzyme, 5 μM substrate
T1 construct: Catalytic domains MMP-2, MMP-3 and MMP-9 were prepared; made in house
Procedure: (§1) The biological activities of the compounds of the present invention were determined by the following test methods, which are based on the ability of the compounds to inhibit the cleavage of various fluorogenic peptides by MMPs 1, 2, 3, 9, 13 and 14.
(§2) The assays for MMPs 2, 3, 9 and 14 are based upon the original protocol described in Fed. Euro. Biochem. Soc., 1992, 296, 263, with the minor modifications described below.
(§3) Inhibition of MMP-2, MMP-3 and MMP-9
(§4) Catalytic domains MMP-2, MMP-3 and MMP-9 were prepared in Pfizer Central Research laboratories in a standard manner from sources known to the skilled person, including some of the references mentioned herein. A stock solution of MMP-2, MMP-3 or MMP-9 (1 μM) was activated by the addition of APMA. For MMP-2 and MMP-9, a final concentration of 1 mM APMA was added, followed by incubation for 1 hour at 37° C. MMP-3 was activated by the addition of 2 mM APMA, followed by incubation for 3 hours at 37° C. The enzymes were then diluted in Tris-HCl assay buffer (100 mM Tris, 100 mM NaCl, 10 mM CaCl2 and 0.16% Brij 35, pH 7.5) to a concentration of 10 nM. The final concentration of enzyme used in the assays was 1 nM.
(§5) The fluorogenic substrate used in this screen was Mca-Arg-Pro-Lys-Pro-Tyr-Ala-Nva-Trp-Met-Lys(Dnp)-NH2 (Bachem Ltd., Essex, UK) as originally described in J. Biol. Chem., 1994, 269, 20952. This substrate was selected because it has a balanced hydrolysis rate against MMPs 2, 3 and 9 (kcat/km of 54,000, 59,400 and 55,300 s^−1 M^−1 respectively). The final substrate concentration used in the assay was 5 μM.
(§6) Determination of Enzyme Inhibition
(§7) The test compound was dissolved in dimethyl sulphoxide and diluted with assay buffer so that no more than 1% dimethyl sulphoxide was present. Test compound and enzyme were added to each well of a 96 well plate and allowed to equilibrate for 15 minutes at 37° C. in an orbital shaker prior to the addition of substrate. Plates were then incubated for 1 hour at 37° C., prior to determination of fluorescence using a fluorimeter (Fluostar; BMG LabTechnologies, Aylesbury, UK) at an excitation wavelength of 328 nm and emission wavelength of 393 nm. The potency of inhibition was measured from the amount of substrate cleavage obtained using a range of test compound concentrations and, from the resulting dose-response curve, an IC50 value (the concentration of inhibitor required to inhibit 50% of the enzyme activity) was calculated.

MMP-2 = MMP-2 (Homo sapiens, UniProt P08253); experiment: Inhibition of MMP-2, fluorogenic peptide cleavage; type: biochemical; conditions: catalytic domain MMP-2, 1 nM enzyme, 5 μM substrate
Procedure: as §1, §2, §3, §4, §5, §6, §7

MMP-1 = target: T2, MMP-1 (Homo sapiens, UniProt P03956); experiment: Inhibition of MMP-1, fluorogenic peptide cleavage; type: biochemical; conditions: catalytic domain MMP-1, 1 nM enzyme, 10 μM substrate
T2 construct: Catalytic domain MMP-1 was prepared; made in house
T2 sequence (P03956 100-269 limits assumed): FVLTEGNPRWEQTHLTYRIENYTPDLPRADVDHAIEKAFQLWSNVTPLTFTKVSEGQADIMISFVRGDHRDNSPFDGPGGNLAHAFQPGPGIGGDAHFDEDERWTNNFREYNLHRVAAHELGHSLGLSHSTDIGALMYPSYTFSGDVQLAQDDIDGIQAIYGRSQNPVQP
Procedure: as §1
Catalytic domain MMP-1 was prepared in Pfizer Central Research laboratories in a standard manner from sources known to the skilled person, including some of the references mentioned herein. A stock solution of MMP-1 (1 μM) was activiated by the addition of aminophenylmercuric acetate (APMA), at a final concentration of 1 mM, for 20 minutes at 37° C. MMP-1 was then diluted in Tris-HCl assay buffer (50 mM Tris, 200 mM NaCl, 5 mM CaCl2, 20 μM ZnSO4 and 0.05% Brij 35, pH 7.5) to a concentration of 10 nM. The final concentration of enzyme used in the assay was 1 nM.
The fluorogenic substrate used in this assay was Dnp-Pro-β-cyclohexyl-Ala-Gly-Cys(Me)-His-Ala-Lys-(N-Me-Ala)-NH2 as originally described in Anal. Biochem., 1993, 212, 58. The final substrate concentration used in the assay was 10 μM.
as §6
as §7, with “C.” for “C.,”, “fluorescence (substrate cleavage)” for “fluorescence”, “355” for “328”, “440” for “393”, “IC50,” for “IC50”

MMP-14 = target: T3, MMP-14 (Homo sapiens, UniProt P50281); experiment: Inhibition of MMP-14, fluorogenic peptide cleavage; type: biochemical; conditions: catalytic domain MMP-14, 1 nM enzyme
T3 construct: Catalytic domain MMP-14 was prepared; made in house
Procedure: as §1, §2
Catalytic domain MMP-14 was prepared in Pfizer Central Research laboratories in a standard manner from sources known to the skilled person, including some of the references mentioned herein. A 10 μM enzyme stock solution was activated for 20 minutes at 25° C. following the addition of 5 μg/ml of trypsin (Sigma, Dorset, UK). The trypsin activity was then neutralised by the addition of 50 μg/ml of soyabean trypsin inhibitor (Sigma, Dorset, UK), prior to dilution of this enzyme stock solution in Tris-HCl assay buffer (100 mM Tris, 100 mM NaCl, 10 mM CaCl2, 0.16% Brij 35, pH 7.5) to a concentration of 10 nM. The final concentration of enzyme used in the assay was 1 nM.
The fluorogenic substrate used in this screen was Mca-Pro-Leu-Gly-Leu-Dpa-Ala-Arg-NH2 (Bachem Ltd., Essex, UK) as described in J. Biol. Chem., 1996, 271, 17119.
Determination of enzyme inhibition
This was performed in the same manner as described for MMPs 2, 3 and 9.

MMP-9 = MMP-9 (Homo sapiens, UniProt P14780); experiment: Inhibition of MMP-9, fluorogenic peptide cleavage; type: biochemical; conditions: catalytic domain MMP-9, 1 nM enzyme, 5 μM substrate
Procedure: as §1, §2, §3, §4, §5, §6, §7

Sequence of MMP-2 (P08253 whole entry, the tested form may be a part): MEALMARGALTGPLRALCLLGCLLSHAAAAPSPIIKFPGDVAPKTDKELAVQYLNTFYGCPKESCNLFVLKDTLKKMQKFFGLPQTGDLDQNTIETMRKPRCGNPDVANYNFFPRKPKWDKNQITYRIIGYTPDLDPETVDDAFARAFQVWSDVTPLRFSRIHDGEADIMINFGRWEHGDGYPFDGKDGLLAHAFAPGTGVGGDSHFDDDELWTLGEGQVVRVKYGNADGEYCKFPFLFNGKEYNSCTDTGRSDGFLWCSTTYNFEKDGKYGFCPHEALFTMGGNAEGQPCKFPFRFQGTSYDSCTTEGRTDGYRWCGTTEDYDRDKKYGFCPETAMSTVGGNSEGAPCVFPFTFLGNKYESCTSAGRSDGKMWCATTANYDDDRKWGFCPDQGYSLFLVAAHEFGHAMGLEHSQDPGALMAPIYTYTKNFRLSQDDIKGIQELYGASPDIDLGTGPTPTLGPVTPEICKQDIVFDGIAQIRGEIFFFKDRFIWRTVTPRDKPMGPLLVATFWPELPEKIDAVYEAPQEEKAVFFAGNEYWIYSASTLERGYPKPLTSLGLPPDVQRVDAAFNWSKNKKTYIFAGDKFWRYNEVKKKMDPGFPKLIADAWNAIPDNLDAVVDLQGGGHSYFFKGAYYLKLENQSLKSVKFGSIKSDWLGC
T1 sequence (P08254 100-272 limits assumed): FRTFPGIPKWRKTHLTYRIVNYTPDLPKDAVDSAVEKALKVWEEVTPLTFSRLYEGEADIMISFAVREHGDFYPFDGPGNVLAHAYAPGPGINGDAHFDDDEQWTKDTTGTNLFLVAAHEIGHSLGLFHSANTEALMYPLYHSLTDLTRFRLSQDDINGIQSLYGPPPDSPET
Sequence of MMP-9 (P14780 whole entry, the tested form may be a part): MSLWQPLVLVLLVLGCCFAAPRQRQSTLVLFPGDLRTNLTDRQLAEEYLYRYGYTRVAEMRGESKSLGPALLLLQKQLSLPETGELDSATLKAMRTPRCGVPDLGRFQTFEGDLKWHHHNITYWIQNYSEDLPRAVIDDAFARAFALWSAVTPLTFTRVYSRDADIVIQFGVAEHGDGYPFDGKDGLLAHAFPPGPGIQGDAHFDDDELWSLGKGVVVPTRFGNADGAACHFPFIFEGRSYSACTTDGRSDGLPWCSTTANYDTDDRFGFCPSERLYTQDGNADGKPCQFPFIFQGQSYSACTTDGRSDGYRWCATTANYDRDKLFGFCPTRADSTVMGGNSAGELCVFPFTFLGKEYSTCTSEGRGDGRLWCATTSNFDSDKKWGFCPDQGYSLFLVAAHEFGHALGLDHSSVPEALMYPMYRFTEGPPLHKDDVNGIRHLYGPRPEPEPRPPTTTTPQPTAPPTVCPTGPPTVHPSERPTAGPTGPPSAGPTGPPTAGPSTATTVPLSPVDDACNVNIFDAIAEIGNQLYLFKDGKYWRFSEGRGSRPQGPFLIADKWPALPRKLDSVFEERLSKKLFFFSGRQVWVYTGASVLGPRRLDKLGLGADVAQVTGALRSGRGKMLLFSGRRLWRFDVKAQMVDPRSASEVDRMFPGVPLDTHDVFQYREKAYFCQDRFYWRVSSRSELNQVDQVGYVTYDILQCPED

Row | SMILES | melting point | pIC50 (MMP-3) | pIC50 (MMP-2) | pIC50 (MMP-1) | pIC50 (MMP-14) | pIC50 (MMP-9)
1 | Cc1cc(C2CCN(S(=O)(=O)C3(C(=O)NO)CCNCC3)CC2)ccc1-c1cccc(OCCO)n1 [Example 6, N-Hydroxy 4-{[4-(4-{6-[2-hydroxyethoxy]pyridin-2-yl}-3-methylphenyl)piperidin-1-yl]sulphonyl}-piperidine-4-carboxamide dihydrochloride] |  | > 8.00 | < 7.00 | < 6.00 | < 5.70 | < 7.15
2 | Cc1cc(C2CCN(S(=O)(=O)C3(C(=O)NO)CC(O)C(O)C3)CC2)ccc1-c1cccc(OCCO)n1 (stereo not drawn) [Example 21, (1α,3α,4α)-N,3,4-trihydroxy-1-[(4-{4-[6-(2-hydroxyethoxy)pyridin-2-yl]-3-methylphenyl}piperidin-1-yl)sulfonyl]cyclopentanecarboxamide] | 215 to 218 °C |  |  |  |  | 
3 | COc1cccc(-c2ccc(C3CCN(S(=O)(=O)C4(C(=O)NO)CC(O)C(O)C4)CC3)cc2C)c1 (stereo not drawn) [Example 24, (1α,3α,4α)-N,3,4-trihydroxy-1-{4-[4-(3-methoxyphenyl)-3-methylphenyl]piperidin-1-ylsulfonyl}cyclopentanecarboxamide] | 201 to 202 °C |  |  |  |  | 
4 | CCOc1cccc(-c2ccc(C3CCN(S(=O)(=O)C4(C(=O)NO)CC(O)C(O)C4)CC3)cc2C)n1 (stereo not drawn) [Example 22, (1α,3α,4α)-1-({4-[4-(6-ethoxypyridin-2-yl)-3-methylphenyl]piperidin-1-yl}sulfonyl)-N,3,4-trihydroxycyclopentanecarboxamide] | 204 to 205 °C |  |  |  |  | 
5 | Cc1cc(C2CCN(S(=O)(=O)C3(C(=O)NO)CCN(C)CC3)CC2)ccc1-c1cccc(OCCO)n1 [Example 7, N-Hydroxy 4-{[4-(4-{6-[2-hydroxyethoxy]pyridin-2-yl}-3-methylphenyl)piperidin-1-yl]sulphonyl}-1-methyl-piperidine-4-carboxamide] |  | > 8.00 | < 7.00 | < 6.00 | < 5.70 | < 7.15
6 | Cc1cc(C2CCN(S(=O)(=O)C(C)(C)C(=O)NO)CC2)ccc1-c1cccc(OC[C@@H](O)CO)c1 [Example 8, N-Hydroxy 2-[4-(4-{3-[(2S)-2,3-dihydroxy-1-propoxy]phenyl}-3-methylphenyl)-piperidin-1-ylsulphonyl]-2-methylpropanamide] | 152 to 154 °C |  |  |  |  | 
7 | CCOc1cccc(-c2ccc(C3CCN(S(=O)(=O)C4(C(=O)NO)CC(O)C(O)C4)CC3)cc2C)n1 (stereo not drawn) [Example 23, (1α,3β,4β)-1-({4-[4-(6-ethoxypyridin-2-yl)-3-methylphenyl]piperidin-1-yl}sulfonyl)-N, 3,4-trihydroxycyclopentanecarboxamide] | 196 to 197 °C |  |  |  |  | 
8 | COc1cccc(-c2ccc(C3CCN(S(=O)(=O)C4(C(=O)NO)CC(O)C(O)C4)CC3)cc2C)c1 (stereo not drawn) [Example 25, (1α,3β,4β)-N,3,4-trihydroxy-1-{4-[4-(3-methoxyphenyl)-3-methylphenyl]piperidin-1-ylsulfonyl}cyclopentanecarboxamide] | 188 to 189 °C |  |  |  |  | 

The remaining lines, values ahead:

Row | melting point | pIC50 (MMP-3) | pIC50 (MMP-2) | pIC50 (MMP-1) | pIC50 (MMP-14) | pIC50 (MMP-9) | SMILES
9 | 177 to 179 °C |  |  |  |  |  | Cc1cc(C2CCN(S(=O)(=O)C3(C(=O)NO)CCOCC3)CC2)ccc1-c1cccc(CN2CCOCC2)c1 [Example 17, N-Hydroxy 4-{[4-(3-methyl-4-{3-[4-morpholinylmethyl]}phenyl)piperidin-1-yl]sulphonyl}tetrahydro-2H-pyran-4-carboxamide]
10 |  | > 8.00 | < 7.00 | < 6.00 | < 5.70 | < 7.15 | Cc1cc(C2CCN(S(=O)(=O)C3(C(=O)NO)CCOCC3)CC2)ccc1-c1cccc(OCCO)n1 [Example 3, N-Hydroxy 4-{[4-(4-{6-[2-hydroxyethoxy]pyridin-2-yl}-3-methylphenyl)piperidin-1-yl]sulphonyl}tetrahydro-2H-pyran-4-carboxamide]
11 |  | > 8.00 | < 7.00 | < 6.00 | < 5.70 | < 7.15 | Cc1cc(C2CCN(S(=O)(=O)C3(C(=O)NO)CCOCC3)CC2)ccc1-c1cccc(OC[C@@H](O)CO)n1 [Example 4, N-Hydroxy 4-{[4-(4-{6-[(2S)-2,3-dihydroxy-1-propoxy]pyridin-2-yl}-3-methylphenyl)piperidin-1-yl]sulphonyl}tetrahydro-2H-pyran-4-carboxamide]
12 |  | > 8.00 | < 7.00 | < 6.00 | < 5.70 | < 7.15 | Cc1cc(C2CCN(S(=O)(=O)C3(C(=O)NO)CCOCC3)CC2)ccc1-c1cccc(OC[C@@H](O)CO)c1 [Example 10, N-Hydroxy 4-{4-[4-(3-{(2S)-2-hydroxy-2-hydroxymethyl}ethoxyphenyl)-3-methylphenyl]-piperidin-1-ylsulphonyl}-tetrahydro-2H-pyran-4-carboxamide]
13 | 213 to 214 °C |  |  |  |  |  | CNCc1cccc(-c2ccc(C3CCN(S(=O)(=O)C4(C(=O)NO)CCOCC4)CC3)cc2C)c1.Cl
14 | 125 to 130 °C | > 8.00 | < 7.00 | < 6.00 | < 5.70 | < 7.15 | Cc1cc(C2CCN(S(=O)(=O)C3(C(=O)NO)CCOCC3)CC2)ccc1-c1cccc(OC[C@H](O)CO)n1 [Example 5, N-Hydroxy 4-{[4-(4-{6-[(2R)-2,3-dihydroxy-1-propoxy]pyridin-2-yl}-3-methylphenyl)piperidin-1-yl]sulphonyl}tetrahydro-2H-pyran-4-carboxamide]
15 | 208 to 210 °C | > 8.00 | < 7.00 | < 6.00 | < 5.70 | < 7.15 | Cc1cc(C2CCN(S(=O)(=O)C3(C(=O)NO)CCOCC3)CC2)ccc1-c1cccc(OCCN)c1.Cl [Example 14, N-Hydroxy 4-{[4-(-4-{3-[2-aminoethoxy]phenyl}-3-methylphenyl)piperidin-1-yl]sulphonyl}tetrahydro-2H-pyran-4-carboxamide hydrochloride]
